Laboratory results from patent US11236052B2, “Aminobenzimidazole derivatives, treatments, and methods of inhibiting histone deacetylase” (TRANSLATIONAL DRUG DEVELOPMENT, LLC, priority 2017, dated 2022).

Key:
U251 = assay: CellTiter-Glo cell viability assay, U251; type: cell-based; conditions: GBM; for IC50: Homo sapiens, U-251, U251, 72 hours
Protocol: (§1) Cell Viability Assay—Cell viability was measured by the CellTiter-Glo® cell viability assay Promega (Madison, Wis.). The CellTiter-Glo® Luminescent Cell Viability Assay is a homogeneous method to determine the number of viable cells in culture based on quantitation of the ATP present, which signals the presence of metabolically active cells. Following treatment, CellTiter-Glo® is added to treatment wells and incubated at 37° C. luminescence values were measured at using a Molecular Devices Spectramax microplate reader.
(§2) Single Agent Studies—Cells were grown to 70% confluency, trypsinized, counted, and seeded in 96 well flat-bottom plates at a final concentration of 2.5×10^3-5×10^3 cells/well (Day 0). Cells were allowed to incubate in growth media for 24 hours. Treatment with the test agents began on Day 1 and continued for 72 hours. At the 72-hour time point, treatment-containing media was removed. Viable cell numbers are quantified by the CellTiter-Glo® cell viability assay as described above. Experiments were run with triplicate concentrations to determine growth inhibitory activity. Results from these studies were used to calculate an IC50 value (concentration of drug that inhibits cell growth by 50 percent of control) for each compound.
(§3) Data Collection—For single agent and combination studies, data from each experiment was collected and expressed as % Cell Growth using the following calculation: % Cell Growth=(ftest/fvehicle)×100
(§4) Where ftest is the luminescence of the tested sample, and fvehicle is the luminescence of the vehicle in which the drug is dissolved. Dose response graphs and IC50 values were generated using Prism 6 software (GraphPad).

GIST48 = assay: CellTiter-Glo cell viability assay, GIST48; type: cell-based; conditions: GIST; for IC50: Homo sapiens, GIST48, 72 hours
Protocol: as §1, §2, §3, §4

GIST882 = assay: CellTiter-Glo cell viability assay, GIST882; type: cell-based; conditions: GIST; for IC50: Homo sapiens, GIST882, 72 hours
Protocol: as §1, §2, §3, §4

MFE296 = assay: CellTiter-Glo cell viability assay, MFE296; type: cell-based; conditions: Uterine; for IC50: Homo sapiens, MFE-296, MFE296, 72 hours
Protocol: as §1, §2, §3, §4

SNG-M = assay: CellTiter-Glo cell viability assay, SNG-M; type: cell-based; conditions: Uterine; for IC50: 72 hours
Protocol: as §1, §2, §3, §4

H929 = assay: CellTiter-Glo cell viability assay, H929; type: cell-based; conditions: Myeloma; for IC50: Homo sapiens, NCI-H929, H929, 72 hours
Protocol: as §1, §2, §3, §4

KMS-34 = assay: CellTiter-Glo cell viability assay, KMS-34; type: cell-based; conditions: Myeloma; for IC50: KMS-34, 72 hours
Protocol: as §1, §2, §3, §4

RPMI-8226 = assay: CellTiter-Glo cell viability assay, RPMI-8226; type: cell-based; conditions: Myeloma; for IC50: Homo sapiens, RPMI-8226, 72 hours
Protocol: as §1, §2, §3, §4

U266 = assay: CellTiter-Glo cell viability assay, U266; type: cell-based; conditions: Myeloma; for IC50: Homo sapiens, U-266, U266, 72 hours
Protocol: as §1, §2, §3, §4

MV411 = assay: CellTiter-Glo cell viability assay, MV411; type: cell-based; conditions: AML; for IC50: Homo sapiens, MV4-11, MV411, 72 hours
Protocol: as §1, §2, §3, §4

K562 = assay: CellTiter-Glo cell viability assay, K562; type: cell-based; conditions: CML; for IC50: Homo sapiens, K562, 72 hours
Protocol: as §1, §2, §3, §4

SUDHL-4 = assay: CellTiter-Glo cell viability assay, SUDHL-4; type: cell-based; conditions: Lymphoma; for IC50: Homo sapiens, SU-DHL-4, SUDHL-4, 72 hours
Protocol: as §1, §2, §3, §4

SUDHL-10 = assay: CellTiter-Glo cell viability assay, SUDHL-10; type: cell-based; conditions: Lymphoma; for IC50: Homo sapiens, SU-DHL10, SUDHL-10, 72 hours
Protocol: as §1, §2, §3, §4

OCI-LY3 = assay: CellTiter-Glo cell viability assay, OCI-LY3; type: cell-based; conditions: Lymphoma; for IC50: Homo sapiens, OCI-LY3, 72 hours
Protocol: as §1, §2, §3, §4

Raji = assay: CellTiter-Glo cell viability assay, Raji; type: cell-based; conditions: Lymphoma; for IC50: Homo sapiens, 72 hours
Protocol: as §1, §2, §3, §4

Mino = assay: CellTiter-Glo cell viability assay, Mino; type: cell-based; conditions: Lymphoma; for IC50: Homo sapiens, 72 hours
Protocol: as §1, §2, §3, §4

BC-1 = assay: CellTiter-Glo cell viability assay, BC-1; type: cell-based; conditions: Lymphoma; for IC50: Homo sapiens, BC1, BC-1, 72 hours
Protocol: as §1, §2, §3, §4

H1650 = assay: CellTiter-Glo cell viability assay, H1650; type: cell-based; conditions: NSCLC; for IC50: Homo sapiens, NCI-H1650, H1650, 72 hours
Protocol: as §1, §2, §3, §4

H1437 = assay: CellTiter-Glo cell viability assay, H1437; type: cell-based; conditions: NSCLC; for IC50: Homo sapiens, NCI-H1437, H1437, 72 hours
Protocol: as §1, §2, §3, §4

ES2 = assay: CellTiter-Glo cell viability assay, ES2; type: cell-based; conditions: Ovarian; for IC50: Homo sapiens, ES-2, ES2, 72 hours
Protocol: as §1, §2, §3, §4

A2780 = assay: CellTiter-Glo cell viability assay, A2780; type: cell-based; conditions: Ovarian; for IC50: Homo sapiens, A2780, 72 hours
Protocol: as §1, §2, §3, §4

HDAC1 = HDAC1 (Homo sapiens (Human), UniProt Q13547); assay: In vitro HDAC enzyme inhibition, mobility shift; type: biochemical; conditions: purified enzyme
Chain of HDAC1 (Q13547 whole entry): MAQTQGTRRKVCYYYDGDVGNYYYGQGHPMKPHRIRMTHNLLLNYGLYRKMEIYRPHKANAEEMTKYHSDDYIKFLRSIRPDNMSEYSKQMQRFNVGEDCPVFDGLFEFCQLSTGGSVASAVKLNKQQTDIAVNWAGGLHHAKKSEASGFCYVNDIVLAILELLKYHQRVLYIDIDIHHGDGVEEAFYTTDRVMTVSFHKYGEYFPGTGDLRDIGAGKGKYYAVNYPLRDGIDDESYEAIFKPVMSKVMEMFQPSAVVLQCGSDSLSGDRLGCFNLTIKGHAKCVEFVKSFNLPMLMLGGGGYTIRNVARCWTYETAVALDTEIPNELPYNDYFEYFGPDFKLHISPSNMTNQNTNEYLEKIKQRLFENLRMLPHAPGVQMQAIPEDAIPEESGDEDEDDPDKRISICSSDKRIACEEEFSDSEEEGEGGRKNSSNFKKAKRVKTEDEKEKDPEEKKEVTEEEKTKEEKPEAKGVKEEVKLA
Protocol: (§5) Purified histone deacetylase enzymes 1, 3, 6, 10 were incubated with fluorescently labeled substrate and test compounds in a standardized reaction mixture in 384 well plates. Upon termination of the reaction, samples were introduced onto microfluidic chips. Samples migrate through channels in the chips and product and substrate are separated based on the difference in their charge and mass (electrophoretic mobility shift). Enzyme activity is measured by direct comparison of the fluorescence in the product and substrate peaks and the results presented in Table 4.

HDAC10 = HDAC10 (Homo sapiens (Human), UniProt Q969S8); assay: In vitro HDAC enzyme inhibition, mobility shift; type: biochemical; conditions: purified enzyme
Chain of HDAC10 (Q969S8 whole entry): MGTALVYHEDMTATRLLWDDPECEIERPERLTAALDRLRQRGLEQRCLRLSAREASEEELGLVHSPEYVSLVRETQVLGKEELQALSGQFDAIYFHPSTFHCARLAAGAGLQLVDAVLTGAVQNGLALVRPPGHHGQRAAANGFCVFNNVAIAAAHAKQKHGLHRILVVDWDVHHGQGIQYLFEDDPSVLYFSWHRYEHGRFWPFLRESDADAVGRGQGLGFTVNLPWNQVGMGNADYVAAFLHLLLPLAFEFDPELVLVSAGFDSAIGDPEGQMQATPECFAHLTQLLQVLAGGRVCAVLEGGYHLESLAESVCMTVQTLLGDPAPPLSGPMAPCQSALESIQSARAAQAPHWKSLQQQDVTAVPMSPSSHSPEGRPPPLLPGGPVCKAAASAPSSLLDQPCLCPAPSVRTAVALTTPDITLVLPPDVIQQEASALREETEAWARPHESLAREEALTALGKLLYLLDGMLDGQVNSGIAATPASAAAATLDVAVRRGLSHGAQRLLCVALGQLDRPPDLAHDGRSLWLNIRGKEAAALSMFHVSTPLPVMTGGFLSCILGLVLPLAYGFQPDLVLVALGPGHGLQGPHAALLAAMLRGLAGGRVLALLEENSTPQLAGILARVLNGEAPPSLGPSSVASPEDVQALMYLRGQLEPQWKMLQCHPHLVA
Protocol: as §5

HDAC3 = HDAC3 (Homo sapiens (Human), UniProt O15379); assay: In vitro HDAC enzyme inhibition, mobility shift; type: biochemical; conditions: purified enzyme
Chain of HDAC3 (O15379 whole entry): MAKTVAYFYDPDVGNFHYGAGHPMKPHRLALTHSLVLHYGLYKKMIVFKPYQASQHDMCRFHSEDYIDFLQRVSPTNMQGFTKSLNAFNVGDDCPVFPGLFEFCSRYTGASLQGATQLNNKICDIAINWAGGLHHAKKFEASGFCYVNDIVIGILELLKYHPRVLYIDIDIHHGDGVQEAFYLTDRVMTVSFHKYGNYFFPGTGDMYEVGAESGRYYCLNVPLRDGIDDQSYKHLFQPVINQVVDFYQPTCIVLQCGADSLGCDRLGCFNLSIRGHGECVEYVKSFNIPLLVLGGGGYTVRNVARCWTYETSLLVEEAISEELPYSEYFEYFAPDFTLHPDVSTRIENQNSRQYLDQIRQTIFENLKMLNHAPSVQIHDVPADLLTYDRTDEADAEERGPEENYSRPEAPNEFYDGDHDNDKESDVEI
Chain of HDAC3 (Q9Y618 395-489 partner): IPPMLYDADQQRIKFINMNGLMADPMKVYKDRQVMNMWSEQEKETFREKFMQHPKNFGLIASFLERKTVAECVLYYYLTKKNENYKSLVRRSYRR
Protocol: as §5

HDAC6 = HDAC6 (Homo sapiens (Human), UniProt Q9UBN7); assay: In vitro HDAC enzyme inhibition, mobility shift; type: biochemical; conditions: purified enzyme
Chain of HDAC6 (Q9UBN7 whole entry): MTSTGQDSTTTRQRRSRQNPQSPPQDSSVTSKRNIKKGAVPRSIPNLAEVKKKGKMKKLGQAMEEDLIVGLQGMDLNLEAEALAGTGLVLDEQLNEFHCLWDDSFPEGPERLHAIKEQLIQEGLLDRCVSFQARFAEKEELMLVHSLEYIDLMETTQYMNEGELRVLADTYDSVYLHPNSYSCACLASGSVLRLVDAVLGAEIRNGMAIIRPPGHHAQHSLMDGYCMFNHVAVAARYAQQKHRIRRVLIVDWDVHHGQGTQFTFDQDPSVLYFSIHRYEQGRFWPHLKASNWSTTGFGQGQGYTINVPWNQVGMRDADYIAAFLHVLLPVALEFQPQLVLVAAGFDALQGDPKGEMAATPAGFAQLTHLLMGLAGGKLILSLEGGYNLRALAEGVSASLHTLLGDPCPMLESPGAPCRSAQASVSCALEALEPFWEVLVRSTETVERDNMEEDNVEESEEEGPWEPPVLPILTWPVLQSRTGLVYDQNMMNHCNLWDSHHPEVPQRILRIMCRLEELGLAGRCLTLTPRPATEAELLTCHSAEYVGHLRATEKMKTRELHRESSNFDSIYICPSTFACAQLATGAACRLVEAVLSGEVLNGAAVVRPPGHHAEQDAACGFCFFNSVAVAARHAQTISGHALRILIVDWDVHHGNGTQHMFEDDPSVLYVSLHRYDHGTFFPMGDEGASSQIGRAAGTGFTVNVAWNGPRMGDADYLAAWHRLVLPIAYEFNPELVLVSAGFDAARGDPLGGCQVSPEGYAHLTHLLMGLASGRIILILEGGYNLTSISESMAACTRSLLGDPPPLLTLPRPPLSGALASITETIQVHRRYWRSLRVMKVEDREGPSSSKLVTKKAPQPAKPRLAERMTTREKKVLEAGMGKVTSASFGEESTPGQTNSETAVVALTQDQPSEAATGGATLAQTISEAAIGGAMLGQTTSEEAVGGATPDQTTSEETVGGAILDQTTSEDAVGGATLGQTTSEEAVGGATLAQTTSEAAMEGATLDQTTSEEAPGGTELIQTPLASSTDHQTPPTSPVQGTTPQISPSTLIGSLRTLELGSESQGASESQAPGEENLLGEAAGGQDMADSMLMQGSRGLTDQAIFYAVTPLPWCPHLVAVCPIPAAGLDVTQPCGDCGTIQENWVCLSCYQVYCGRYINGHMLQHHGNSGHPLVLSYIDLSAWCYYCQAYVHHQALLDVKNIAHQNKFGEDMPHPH
Protocol: as §5

% PPB, mouse = type: in vitro ADME; conditions: plasma; mouse (m)
% PPB, human = type: in vitro ADME; conditions: plasma; human (hu)
S9 in vitro half-life = type: in vitro ADME; conditions: S9 fraction

O=C(NO)c1ccc(Nc2nc3ccccc3n2CC2CCCCC2)cc1 [ID #1, 4-((1-(cyclohexylmethyl)-1H-benzo[d]imidazol-2-yl)amino)-N-hydroxybenzamide]
Improvement ID #1 over ID #3 Percent (U251; U251): 61.18% | Improvement ID #1 over ID #3 fold (U251; U251): 2.58 fold | IC50 (U251): 1580 nM | Improvement ID #1 over ID #3 Percent (GIST48; GIST48): 68.87% | Improvement ID #1 over ID #3 fold (GIST48; GIST48): 3.21 fold | IC50 (GIST48): 1320 nM | Improvement ID #1 over ID #3 Percent (GIST882; GIST882): 67.66% | Improvement ID #1 over ID #3 fold (GIST882; GIST882): 3.09 fold | IC50 (GIST882): 5750 nM | IC50 (MFE296): 4370 nM | Improvement ID #1 over ID #3 Percent (MFE296; MFE296): 65.29% | Improvement ID #1 over ID #3 fold (MFE296; MFE296): 2.88 fold | Improvement ID #1 over ID #3 Percent (SNG-M): 78.93% | Improvement ID #1 over ID #3 fold (SNG-M): 4.75 fold | IC50 (SNG-M): 1700 nM | IC50 (H929): 830 nM | Improvement ID #1 over ID #3 Percent (H929; H929): 39.86% | Improvement ID #1 over ID #3 fold (H929; H929): 1.66 fold | Improvement ID #1 over ID #3 Percent (KMS-34; KMS-34): 55.15% | Improvement ID #1 over ID #3 fold (KMS-34; KMS-34): 2.23 fold | IC50 (KMS-34): 610 nM | IC50 (RPMI-8226): 660 nM | Improvement ID #1 over ID #3 Percent (RPMI-8226; RPMI-8226): 56.29% | Improvement ID #1 over ID #3 fold (RPMI-8226; RPMI-8226): 2.29 fold | IC50 (U266): 1170 nM | Improvement ID #1 over ID #3 Percent (U266; U266): 71.46% | Improvement ID #1 over ID #3 fold (U266; U266): 3.50 fold | Improvement ID #1 over ID #3 Percent (MV411; MV411): 77.09% | Improvement ID #1 over ID #3 fold (MV411; MV411): 4.37 fold | IC50 (MV411): 630 nM | Improvement ID #1 over ID #3 Percent (K562; K562): 69.90% | Improvement ID #1 over ID #3 fold (K562; K562): 3.32 fold | IC50 (K562): 1580 nM | IC50 (SUDHL-4): 240 nM | Improvement ID #1 over ID #3 Percent (SUDHL-4; SUDHL-4): 94.24% | Improvement ID #1 over ID #3 fold (SUDHL-4; SUDHL-4): 17.38 fold | IC50 (SUDHL-10): 550 nM | Improvement ID #1 over ID #3 Percent (SUDHL-10; SUDHL-10): 63.58% | Improvement ID #1 over ID #3 fold (SUDHL-10; SUDHL-10): 2.75 fold | IC50 (OCI-LY3): 1050 nM | Improvement ID #1 over ID #3 Percent (OCI-LY3; OCI-LY3): 54.15% | Improvement ID #1 over ID #3 fold (OCI-LY3; OCI-LY3): 2.18 fold | IC50 (Raji): 1830 nM | Improvement ID #1 over ID #3 Percent (Raji): 62.11% | Improvement ID #1 over ID #3 fold (Raji): 2.64 fold | IC50 (Mino): 1200 nM | Improvement ID #1 over ID #3 Percent (Mino): 71.22% | Improvement ID #1 over ID #3 fold (Mino): 3.48 fold | IC50 (BC-1): 1790 nM | Improvement ID #1 over ID #3 Percent (BC-1; BC-1): 63.69% | Improvement ID #1 over ID #3 fold (BC-1; BC-1): 2.75 fold | IC50 (H1650): 6610 nM | Improvement ID #1 over ID #3 Percent (H1650; H1650): 63.68% | Improvement ID #1 over ID #3 fold (H1650; H1650): 2.75 fold | IC50 (H1437): 2190 nM | Improvement ID #1 over ID #3 Percent (H1437; H1437): 54.28% | Improvement ID #1 over ID #3 fold (H1437; H1437): 2.19 fold | IC50 (ES2): 3980 nM | Improvement ID #1 over ID #3 Percent (ES2; ES2): 69.80% | Improvement ID #1 over ID #3 fold (ES2; ES2): 3.31 fold | IC50 (A2780): 2030 nM | Improvement ID #1 over ID #3 Percent (A2780; A2780): 63.62% | Improvement ID #1 over ID #3 fold (A2780; A2780): 2.75 fold | IC50 (HDAC1): 0.13 µM | IC50 (HDAC10): 0.137 µM | IC50 (HDAC3): 0.019 µM | IC50 (HDAC6): 0.0064 µM | fraction unbound (% PPB, mouse): 0.0045 | fraction unbound (% PPB, human): 0.0056 | half-life (S9 in vitro half-life): 1.25 h

O=C(NO)c1ccc(Nc2nc3ccccc3n2C2CCCCCC2)cc1 [ID #3, 4-((1-cycloheptyl-1H-benzo[d]imidazol-2-yl)amino)-N-hydroxybenzamide]
IC50 (U251): 4070 nM | IC50 (GIST48): 4240 nM | IC50 (GIST882): 17800 nM | IC50 (MFE296): 12600 nM | IC50 (SNG-M): 8070 nM | IC50 (H929): 1380 nM | IC50 (KMS-34): 1360 nM | IC50 (RPMI-8226): 1510 nM | IC50 (U266): 4100 nM | IC50 (MV411): 2750 nM | IC50 (K562): 5250 nM | IC50 (SUDHL-4): 4170 nM | IC50 (SUDHL-10): 1510 nM | IC50 (OCI-LY3): 2290 nM | IC50 (Raji): 4830 nM | IC50 (Mino): 4170 nM | IC50 (BC-1): 4930 nM | IC50 (H1650): 18200 nM | IC50 (H1437): 4790 nM | IC50 (ES2): 13200 nM | IC50 (A2780): 5580 nM | IC50 (HDAC1): 0.445 µM | IC50 (HDAC10): 3.12 µM | IC50 (HDAC3): 0.079 µM | IC50 (HDAC6): 0.0145 µM | fraction unbound (% PPB, mouse): 0.0052 | fraction unbound (% PPB, human): 0.0064 | half-life (S9 in vitro half-life): 1.22 h
